Data from article PMC3971658 (The Journal of General Physiology, 2014).

What was measured:
[1] = target: human Cav2.1 (α1A-2) channel and GABABR (Homo sapiens, UniProt O75899+Q9UBS5); format: cell-based; conditions: 200 nM
[2] = target: human Cav2.3c (α1E-c) channel and GABABR (Homo sapiens, UniProt O75899+Q9UBS5); format: cell-based; conditions: 200 nM
[3] = test system: human Cav2.3c channel and GABABR; format: cell-based
[4] = test system: rat models of neuropathic pain; conditions: in vivo; cited from earlier work
[5] = test system: GABABR; conditions: cited from earlier work

In the case of Vc1.1, the IBa inhibition [1] is reported as 0 (9) %, the IBa inhibition [2] is reported as 25.5 ± 4.2 (9) % and the “pathway of inhibition (VD or VI)” value [3] is reported as “solely mediated by a VI pathway”. For the same substance, the analgesic effect [4] was “can be used as an analgesic in rat models of neuropathic pain” and the “competition with baclofen for binding to receptors” value [5] was “does not compete with baclofen for binding to receptors”.
